Data taken from US20130071400A1, “LINGO binding molecules and Pharmaceutical Use Thereof” (NOVARTIS AG, priority 2006, published 2013).

Tested on: postnatal day 7 rat cerebellar granule neurons (CGN)
Experiment: Neurite outgrowth inhibition assay on spinal cord myelin
Format: cell-based
Method: A) P7 CGN cells are incubated for 16 hr on wells coated without spinal cord myelin (no SC, white bars) or wells coated with spinal cord myelin in the absence (SC, red bars) or presence of anti-LINGO-1 IgG4 antibodies, a control anti-lysozyme IgG4 antibody 3207 (green bars) or […] of the ROCK inhibitor Y27632 (yellow bar). […] The experiment is performed in three 96 well plates with an SC and no SC condition per plate to which the effects of the antibodies on that plate are compared and mean neurite length per neuron (μm) is calculated for 500 neurons per well in replicates of 10. The percentage inhibition (white text) is calculated as the percentile difference in mean neurite length/neuron between cells plated on wells coated with and without SC. The percentage disinhibition (black italic text) is calculated as the difference in mean neurite length between cells plated on SC in the presence and absence of anti-LINGO-1 antibody as a percentile of the difference between cells plated on wells coated with and without SC. *p<0.05, **p<0.01 (one way ANOVA, Holm-Sidak comparison to mean neurite length/neuron for cells plated on spinal cord myelin in the absence of antibody).
A) P7 CGN cells are incubated for 8 hr on wells coated without spinal cord myelin (no SC, white bars) or wells coated with spinal cord myelin in the absence (SC, red bars) or presence of anti-LINGO-1 IgG4 antibodies or a control anti-lysozyme IgG4 antibody 3207. The experiment is performed in three 96 well plates with an SC and no SC condition per plate to which the effects of the antibodies on that plate are compared and mean neurite length per neuron (μm) is calculated for 500 neurons per well in replicates of 10. The percentage inhibition (white text) and disinhibition (black italic text) is calculated as above. **p<0.01 (one way ANOVA, Holm-Sidak comparison to mean neurite length/neuron for cells plated on spinal cord myelin in the absence of antibody).
P7 CGN cells are incubated for 8 hr on wells coated without spinal cord myelin (no SC) or wells coated with spinal cord myelin in the absence (SC) or presence of the indicated concentrations of anti-LINGO-1 IgG4 antibodies 4784 or 4785, a control anti-lysozyme IgG4 antibody 3207 or 1 μM Y27632 (ROCK). The experiment is performed in three 96 well plates with an SC and no SC condition per plate to which the effects of the antibodies on that plate are compared and mean neurite length per neuron (μm) is calculated for 500 neurons per well in replicates of 10. The percentage inhibition (white text) and disinhibition (black italic text) is calculated as above. *p<0.05, **p<0.01 (one way ANOVA, Holm-Sidak comparison to mean neurite length/neuron for cells plated on spinal cord myelin in the absence of antibody). […]

C[C@@H](N)[C@H]1CC[C@H](C(=O)Nc2ccncc2)CC1 [Y27632, reference compound]
disinhibition of spinal cord myelin (1 μM Y27632, 8 hr incubation (FIG. 4)): 65-74% | disinhibition of spinal cord myelin (neurite outgrowth) (1 μm Y27632, 16 hr incubation (FIG. 2), compared to 4784 and 4785): greater level of disinhibition
